Tests used:
[1] = system: N. meningitidis 2C4.3 bacterial aggregates; assay: microbe, parasite or virus in culture; assay type: cell-based, Neisseria meningitidis; conditions: for EC80: Neisseria meningitidis, 0.5 h, read-out: Concentration promoting efficient meningococcal dispersal (~80%); for effect on dispersion of meningococcal aggregates (in words): 0.5 to 80 μM, 30 min; for Concentration promoting efficient meningococcal dispersal (~80%): 30 min treatment, 0.5 to 80 μM tested
Description: N. meningitidis 2C4.3 was grown in liquid culture at 10^7 CFU/ml for 2 h to form bacterial aggregates and were treated with increasing concentrations of Trifluoperazine (10 to 40 μM), Gentamicin (150 μg/ml) or cefotaxim (20 μg/ml) for 20 minutes and bacterial aggregates were immediately visualized using a phase-contrast microscope. […] (B) Quantification of the bacterial aggregation was performed using Image J software.
N. meningitidis 2C4.3 wild type strain and the isogenic derivative mutant PilT ([…]PilT) were grown in liquid culture at 10^7 CFU/ml for 2 h to form bacterial aggregates and then treated with 50 μM Trifluoperazine. Time lapse phase-contrast video microscopy was performed to visualize the effect on bacterial aggregates over time. Images were taken at the indicated time points of the video.
N. meningitidis 2C4.3 was grown in liquid culture at 10^7 CFU/ml for 2 h to form bacterial aggregates and were treated with 30 μM Trifluoperazine for 30 minutes to induce bacterial dispersion or PBS as a control. The medium was replaced to remove the Trifluoperazine and the reformation of bacterial aggregates were visualized overtime using a phase-contrast microscope.
FIG. 7. […] Bacteria were grown in suspension for 2 h then Phenothiazine derivatives were added at the indicated concentrations.
N. meninigitidis 2C4.3 strain was grown in suspension in wells of a 24 well plate, containing 1 ml of DMEM medium supplemented with 10% heat-inactivated fetal calf serum. After 2 h of growth, Trifluoperazine (or control vehicle) was added at various concentrations ranging from 10 to 40 μM for 20 min and the bacterial aggregates were visualized over time using a phase-contrast microscope.
N. meninigitidis 2C4.3 strain was grown in suspension in wells of a 24 well plate, containing 1 ml of DMEM medium supplemented with 10% heat-inactivated fetal calf serum. After 2 h of growth, various concentrations (0.5 to 80 μM) of phenothiazine-derivative compounds or control vehicle (PBS or DMSO) were added to the wells for 30 min and the bacterial aggregates were visualized using a phase-contrast microscope.
Were tested phenothiazine-derivative compounds of: • the Piperazine group: Trifluoperazine (Sigma #T8516), Fluphenazine (Sigma #F4765), Prochlorperazine (Sigma #P9178) Perphenazine (Sigma #P6402); • the Piperidine group: Thioridazine (Sigma #T9025) and Mesoridazin (Sigma #M4068); • the Aliphatic group: Chlorpromazine (Sigma #C8138), Promazine (Sigma #P6656), Triflupromazine (Sigma #1686003) and levomepromazine (Sigma #L0500000).

[2] = system: Nm2C4.3 microcolonies on HBMEC; assay: Dispersion of meningococcal microcolonies at the surface of infected human endothelial cells; assay type: cell-based, Neisseria meningitidis; conditions: Cefotaxim 20 μg/ml
Description: Human […] microvascular endothelial cells (HBMEC) were infected with Nm2C4.3 for 1 h 30, treated with Trifluoperazine (10-40 μM) for 30 minutes, before fixation and immunofluorescence analysis using anti-Nm2C4.3 antibody and Alexa Fluor 633 Phalloidin. (A) Representative fluorescence microscopy showing bacterial colony (white dots) formed at the surface of the endothelial cells. (B) Quantification of the bacterial colonization was performed using Image J software.
HBMEC, a human endothelial cell line isolated from bone marrow capillaries (Schweitzer et al., 1997) were grown in Dulbecco's Modified Eagle Medium (DMEM) 4.5 g/L-Glutamax (ThermoFischer) 10% FBS. Cells were grown on Thermanox coverslips coated with gelatin 2% (BD Difco #214340) for 2 days to reach confluency. Cells were then infected with a suspension of Nm2C4.3 (˜10^7 CFU/ml) in DMEM/FBS during 30 minutes to allow bacterial adhesion. Cells were then washed three times with medium to remove non-adherent bacteria and infection was pursued for 1 h 30: adherent bacteria grew at the endothelial cell surface and formed micro-colonies. Trifluoperazine was then added to obtain final concentrations of 10, 20, 30 and 40 μM. After incubation for 30 minutes, cells were washed and fixed in 4% Paraformaldehyde for 10 min, washed three times with PBS, and permeabilized with 0.1% Triton X-100 in PBS for 10 min. Cells were blocked for 30 min with 3% BSA in PBS and were incubated for 2 h with the primary antibodies (Rabbit polyclonal anti-Nm2C4.3 strain, kindly provided by Dr X. Nassif, INEM, Paris). After three washes with PBS, cells were incubated for 1 h with […] anti-rabbit IgG (Jackson ImmunoResearch Laboratories), together with Alexa Fluor 633 Phalloidin (Thermofischer) and DAPI (0.5 mg ml-1, Sigma Aldrich) to stain Actin and nuclei, respectively. Labelled preparations were mounted in Glycergel media (DAKO) and image acquisitions were performed with a DM16000 microscope (Leica, X40). Quantification was done with ImageJ software (NIH). Results are presented as a vascular colonisation index corresponding to the area occupied by the fluorescently labelled bacteria per fields in relation to the area occupied by the fluorescently labelled human endothelial cells (Actin staining). Statistical analysis were performed with Student t test.

[3] = system: meningococcal colonization of the human dermal vasculature; assay: In vivo infection of mice engrafted with human skin; conditions: cefotaxime treatment

| Structure (SMILES) | EC80 [1] | effect on dispersion of meningococcal aggregates (in words) [1] | Concentration promoting efficient meningococcal dispersal (~80%) [1] | further results |
| --- | --- | --- | --- | --- |
| CN1CCN(CCCN2c3ccccc3Sc3ccc(Cl)cc32)CC1 [Prochlorperazine] | 30 µM | – | – | – |
| CN(C)CCCN1c2ccccc2Sc2ccccc21 [Promazine] | 10 µM | inhibited bacterial aggregation with better efficacy than Trifluoperazine | – | – |
| CSc1ccc2c(c1)N(CCC1CCCCN1C)c1ccccc1S2 (stereo not shown) [Thioridazine] | 4 µM | – | – | – |
| OCCN1CCN(CCCN2c3ccccc3Sc3ccc(Cl)cc32)CC1 [Perphenazine] | 40 µM | – | – | – |
| COc1ccc2c(c1)N(C[C@H](C)CN(C)C)c1ccccc1S2 [Levomepromazine] | – | no effects | No effect | – |
| CN(C)CCCN1c2ccccc2Sc2ccc(Cl)cc21 [Chlorpromazine] | – | no effects | No effect | – |
| CN(C)CCCN1c2ccccc2Sc2ccc(C(F)(F)F)cc21 [Triflupromazine] | – | no effects | No effect | – |
| OCCN1CCN(CCCN2c3ccccc3Sc3ccc(C(F)(F)F)cc32)CC1 [Fluphenazine] | 40 µM | – | – | – |
| CO/N=C(\C(=O)N[C@@H]1C(=O)N2C(C(=O)O)=C(COC(C)=O)CS[C@H]12)c1csc(N)n1 [Cefotaxim] | – | – | – | dispersion of microcolonies at the endothelial cell surface [2]: poorly induced the dispersion; dispersion of bacterial aggregates formed in suspension ([1]; Cefotaxim 20 μg/ml, 20 minutes): did not significantly induce the dispersion; increase of inflammatory response [3]: 2 fold |
| CN1CCCCC1CCN1c2ccccc2Sc2ccc([S+](C)[O-])cc21 (stereo not shown) [Mesoridazine] | 6 µM | – | – | – |
